Holding throughout (assay type): binding
For one assay, the target named is T1, JAK1 (Homo sapiens, UniProt P23458).
T1 construct: endogenous in cells; host or cells: Molt4 (ATCC CRL-1582) and Ramos (ATCC CRL-1596) cells; mixed lysate 1:2
The assay can be described thus: Kinobeads assay with immunodetection, JAK1. Conditions: for IC50: Kinobeads assay, mixed Molt4/Ramos lysate, read-out: Inhibition values (IC50) JAK1. In outline: (§1)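 Lysates of Molt4 and Ramos cells, combined 1:2 and diluted to 10 mg/mL in Tris pH 7.4 buffer with 0.8% NP40, are incubated for 3 h in the cold with compound and the affinity matrix. Beads are washed, eluted in SDS buffer, and kinases are quantified by infrared immunodetection to give IC50s.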

The next assay concerns the target T2, JAK2 (Homo sapiens, UniProt O60674).
T2 construct: endogenous in cells; host or cells: Molt4 (ATCC CRL-1582) and Ramos (ATCC CRL-1596) cells; mixed lysate 1:2
The assay can be described thus: Kinobeads assay with immunodetection, JAK2. Conditions: mixed Molt4/Ramos lysate, read-out: Inhibition values (IC50) JAK2. In outline:
as §1

Another assay addresses T3, JAK3 (Homo sapiens, UniProt P52333).
T3 construct: endogenous in cells; host or cells: Molt4 (ATCC CRL-1582) and Ramos (ATCC CRL-1596) cells; mixed lysate 1:2
T3 sequence (P52333 1-1124): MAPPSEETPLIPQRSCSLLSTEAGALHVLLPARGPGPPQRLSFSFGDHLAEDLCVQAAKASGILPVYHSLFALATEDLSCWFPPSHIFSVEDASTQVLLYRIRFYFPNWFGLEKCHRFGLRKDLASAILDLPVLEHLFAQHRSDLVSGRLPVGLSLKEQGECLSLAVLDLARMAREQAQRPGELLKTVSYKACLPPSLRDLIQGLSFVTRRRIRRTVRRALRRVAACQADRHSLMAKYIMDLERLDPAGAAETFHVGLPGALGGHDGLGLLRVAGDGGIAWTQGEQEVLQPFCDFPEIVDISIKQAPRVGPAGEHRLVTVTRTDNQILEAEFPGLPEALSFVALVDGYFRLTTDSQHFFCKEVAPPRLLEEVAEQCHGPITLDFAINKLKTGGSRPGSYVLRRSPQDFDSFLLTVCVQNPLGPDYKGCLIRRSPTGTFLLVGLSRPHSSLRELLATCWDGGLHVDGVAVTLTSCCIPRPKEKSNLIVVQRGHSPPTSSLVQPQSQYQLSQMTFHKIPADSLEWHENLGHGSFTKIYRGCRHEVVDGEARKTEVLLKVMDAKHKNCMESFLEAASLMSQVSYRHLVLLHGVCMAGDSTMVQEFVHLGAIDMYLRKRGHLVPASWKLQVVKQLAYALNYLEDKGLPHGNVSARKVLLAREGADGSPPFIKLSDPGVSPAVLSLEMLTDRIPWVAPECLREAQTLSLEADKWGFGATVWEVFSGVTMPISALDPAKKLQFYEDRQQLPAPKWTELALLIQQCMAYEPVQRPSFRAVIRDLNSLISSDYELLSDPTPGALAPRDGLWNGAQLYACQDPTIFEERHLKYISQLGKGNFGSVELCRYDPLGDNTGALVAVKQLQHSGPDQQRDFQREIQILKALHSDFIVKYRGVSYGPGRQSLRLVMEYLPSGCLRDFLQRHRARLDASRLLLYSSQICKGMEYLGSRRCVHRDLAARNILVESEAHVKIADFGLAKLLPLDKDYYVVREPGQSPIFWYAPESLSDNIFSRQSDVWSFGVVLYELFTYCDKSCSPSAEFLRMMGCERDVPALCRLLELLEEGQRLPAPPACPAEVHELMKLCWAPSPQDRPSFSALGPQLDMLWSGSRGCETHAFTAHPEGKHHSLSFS
The assay can be described thus: Kinobeads assay with immunodetection, JAK3. Conditions: for IC50: Kinobeads assay, mixed Molt4/Ramos lysate, read-out: Inhibition values (IC50) JAK3. In outline: as §1

A further assay deals with T4, TYK2 (Homo sapiens, UniProt P29597).
T4 construct: endogenous in cells; host or cells: Molt4 (ATCC CRL-1582) and Ramos (ATCC CRL-1596) cells; mixed lysate 1:2
T4 sequence (P29597 whole entry): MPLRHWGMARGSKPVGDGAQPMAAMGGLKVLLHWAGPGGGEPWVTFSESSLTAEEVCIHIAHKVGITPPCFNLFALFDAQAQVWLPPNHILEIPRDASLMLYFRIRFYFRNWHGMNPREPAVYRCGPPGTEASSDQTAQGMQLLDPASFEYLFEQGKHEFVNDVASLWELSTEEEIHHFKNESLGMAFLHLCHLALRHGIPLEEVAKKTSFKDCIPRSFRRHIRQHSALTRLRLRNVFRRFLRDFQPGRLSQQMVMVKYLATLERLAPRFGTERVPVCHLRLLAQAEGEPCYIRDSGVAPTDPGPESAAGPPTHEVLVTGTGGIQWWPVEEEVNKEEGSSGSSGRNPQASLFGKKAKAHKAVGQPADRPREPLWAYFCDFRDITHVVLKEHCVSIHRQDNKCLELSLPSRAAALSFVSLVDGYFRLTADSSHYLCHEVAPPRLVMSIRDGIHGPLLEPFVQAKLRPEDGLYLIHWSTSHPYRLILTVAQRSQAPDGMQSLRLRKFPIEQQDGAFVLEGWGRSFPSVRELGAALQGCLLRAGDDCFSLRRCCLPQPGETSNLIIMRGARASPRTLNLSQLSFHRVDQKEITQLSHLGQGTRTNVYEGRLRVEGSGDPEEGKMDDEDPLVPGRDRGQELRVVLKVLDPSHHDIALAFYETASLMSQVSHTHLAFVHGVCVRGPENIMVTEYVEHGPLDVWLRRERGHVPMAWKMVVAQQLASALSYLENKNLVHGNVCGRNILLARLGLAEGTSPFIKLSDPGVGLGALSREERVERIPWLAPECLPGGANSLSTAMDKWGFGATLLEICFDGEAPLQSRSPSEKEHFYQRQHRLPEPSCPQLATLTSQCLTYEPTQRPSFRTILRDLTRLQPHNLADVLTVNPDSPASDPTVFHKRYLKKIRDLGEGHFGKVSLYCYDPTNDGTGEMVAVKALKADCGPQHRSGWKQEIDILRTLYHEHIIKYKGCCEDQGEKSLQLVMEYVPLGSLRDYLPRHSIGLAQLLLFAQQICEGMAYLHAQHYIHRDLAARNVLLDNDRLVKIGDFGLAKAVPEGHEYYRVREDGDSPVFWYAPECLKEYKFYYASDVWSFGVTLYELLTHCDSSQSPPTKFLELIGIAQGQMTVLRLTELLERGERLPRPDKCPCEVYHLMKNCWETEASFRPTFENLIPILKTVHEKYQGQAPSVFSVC
The assay can be described thus: Kinobeads assay with immunodetection, TYK2. As to conditions: for IC50: Kinobeads assay, mixed Molt4/Ramos lysate, read-out: Inhibition values (IC50) Tyk2. Summed up: as §1

Usually IC50 stands for the concentration needed to halve the response being measured.

SMILES strings stand for the structures.

T1 sequence (P23458 whole entry): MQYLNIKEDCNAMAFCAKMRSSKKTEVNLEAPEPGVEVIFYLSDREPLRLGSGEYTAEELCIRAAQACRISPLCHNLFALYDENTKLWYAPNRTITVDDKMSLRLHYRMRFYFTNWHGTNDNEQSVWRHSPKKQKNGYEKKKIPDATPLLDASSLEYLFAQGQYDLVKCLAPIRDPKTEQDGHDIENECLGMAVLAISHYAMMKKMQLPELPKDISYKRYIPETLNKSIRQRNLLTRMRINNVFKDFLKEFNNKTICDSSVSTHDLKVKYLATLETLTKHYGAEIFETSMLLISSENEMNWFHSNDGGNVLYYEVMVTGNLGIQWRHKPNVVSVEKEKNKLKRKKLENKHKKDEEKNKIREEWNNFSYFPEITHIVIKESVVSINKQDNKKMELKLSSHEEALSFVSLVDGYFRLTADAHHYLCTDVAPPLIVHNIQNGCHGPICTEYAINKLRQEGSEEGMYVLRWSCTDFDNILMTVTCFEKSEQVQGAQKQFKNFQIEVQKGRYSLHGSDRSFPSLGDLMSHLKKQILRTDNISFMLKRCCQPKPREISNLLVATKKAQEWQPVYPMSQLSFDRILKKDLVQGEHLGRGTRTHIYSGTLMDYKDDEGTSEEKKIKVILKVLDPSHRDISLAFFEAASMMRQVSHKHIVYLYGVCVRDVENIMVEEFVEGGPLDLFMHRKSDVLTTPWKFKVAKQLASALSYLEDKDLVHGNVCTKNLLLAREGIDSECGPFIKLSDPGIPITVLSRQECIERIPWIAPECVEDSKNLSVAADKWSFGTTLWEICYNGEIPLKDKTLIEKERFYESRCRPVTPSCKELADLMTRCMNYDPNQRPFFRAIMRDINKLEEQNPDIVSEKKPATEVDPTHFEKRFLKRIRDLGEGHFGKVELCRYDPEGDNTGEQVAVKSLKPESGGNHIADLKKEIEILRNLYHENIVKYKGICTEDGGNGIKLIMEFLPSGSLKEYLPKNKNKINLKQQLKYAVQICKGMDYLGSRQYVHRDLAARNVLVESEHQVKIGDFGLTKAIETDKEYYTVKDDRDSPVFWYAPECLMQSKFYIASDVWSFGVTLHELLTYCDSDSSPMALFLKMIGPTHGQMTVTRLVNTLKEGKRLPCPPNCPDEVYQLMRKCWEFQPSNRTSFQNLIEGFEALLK
T2 sequence (O60674 whole entry): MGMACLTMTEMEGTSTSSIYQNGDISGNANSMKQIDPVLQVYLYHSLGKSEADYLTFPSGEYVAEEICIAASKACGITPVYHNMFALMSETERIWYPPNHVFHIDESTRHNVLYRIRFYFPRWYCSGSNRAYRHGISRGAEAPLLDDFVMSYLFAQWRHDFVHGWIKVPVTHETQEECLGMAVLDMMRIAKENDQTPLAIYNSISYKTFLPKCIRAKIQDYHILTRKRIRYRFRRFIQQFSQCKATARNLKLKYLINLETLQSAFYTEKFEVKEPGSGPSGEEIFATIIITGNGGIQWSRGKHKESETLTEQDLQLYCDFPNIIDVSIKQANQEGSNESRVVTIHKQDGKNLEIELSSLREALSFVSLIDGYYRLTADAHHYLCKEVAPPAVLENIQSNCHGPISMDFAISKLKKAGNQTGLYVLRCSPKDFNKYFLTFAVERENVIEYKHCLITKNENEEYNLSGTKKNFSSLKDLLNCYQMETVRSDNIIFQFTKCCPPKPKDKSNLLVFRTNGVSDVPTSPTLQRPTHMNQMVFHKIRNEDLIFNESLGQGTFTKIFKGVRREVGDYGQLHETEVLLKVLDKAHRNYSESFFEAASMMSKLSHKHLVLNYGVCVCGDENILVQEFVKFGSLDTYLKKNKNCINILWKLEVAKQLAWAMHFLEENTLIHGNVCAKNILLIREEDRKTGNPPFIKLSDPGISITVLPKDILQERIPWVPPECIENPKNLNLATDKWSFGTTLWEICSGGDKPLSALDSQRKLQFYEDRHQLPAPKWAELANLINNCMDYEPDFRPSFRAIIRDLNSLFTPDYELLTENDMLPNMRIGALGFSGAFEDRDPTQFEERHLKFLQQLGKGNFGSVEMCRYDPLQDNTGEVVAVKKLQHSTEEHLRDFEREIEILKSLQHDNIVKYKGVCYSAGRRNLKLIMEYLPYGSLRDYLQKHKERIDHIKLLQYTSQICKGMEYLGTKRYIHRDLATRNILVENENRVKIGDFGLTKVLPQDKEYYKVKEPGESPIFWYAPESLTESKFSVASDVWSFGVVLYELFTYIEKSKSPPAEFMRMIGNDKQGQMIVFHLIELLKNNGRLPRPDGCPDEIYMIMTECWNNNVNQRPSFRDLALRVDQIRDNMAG

Regarding `Cc1cnc(Nc2cnn(CC(F)F)c2)nc1NC[C@H]1CCN(C(=O)CC#N)C1` [Example 129, (R)-3-(3-(((2-((1-(2,2-difluoroethyl)-1H-pyrazol-4-yl)amino)-5-methylpyrimidin-4-yl)amino)methyl)pyrrolidin-1-yl)-3-oxopropanenitrile], on JAK1, the “Selectivity ratio over JAK2, JAK1” value is “JAK1 = 139”. Moreover, the IC50 at JAK1 is under 100 nM; at JAK2, 1000 to 10000 nM; at JAK3, 100 to 1000 nM; at TYK2 it was under 100 nM.
Take `Cn1cc(Nc2ncc(F)c(NC[C@H]3CCCN3C(=O)CCC#N)n2)cn1` [Example 114, (R)-4-(2-(((5-fluoro-2-((1-methyl-1H-pyrazol-4-yl)amino)pyrimidin-4-yl)amino)methyl)pyrrolidin-1-yl)-4-oxobutanenitrile]: the IC50 on JAK1 was under 100 nM; on JAK2 it was 1000 to 10000 nM; on JAK3, 100 to 1000 nM; at TYK2, under 100 nM. For the same compound, the “Selectivity ratio over JAK2, Tyk2” value on TYK2 is “Tyk2 = 103”.
Regarding `Cn1cc(Nc2nccc(NC[C@H]3CCCN3C(=O)CC#N)n2)cn1` [Example 95, (R)-3-(2-(((2-((1-methyl-1H-pyrazol-4-yl)amino)pyrimidin-4-yl)amino)methyl)pyrrolidin-1-yl)-3-oxopropanenitrile], the IC50 on JAK1 is 100 to 1000 nM; at JAK2, 1000 to 10000 nM; on JAK3, 1000 to 10000 nM; on TYK2 it was under 100 nM. On TYK2, the “Selectivity ratio over JAK2, Tyk2” value is on record as “Tyk2 = 138”.
As to `OCCn1cc(Nc2ncc(Cl)c(NCC3CCNC3)n2)cn1` (stereo in doubt) [Example 79, (R)-2-(4-((5-chloro-4-((pyrrolidin-3-ylmethyl)amino)pyrimidin-2-yl)amino)-1H-pyrazol-1-yl)ethanol], the “Selectivity ratio over JAK2, JAK1” value on JAK1 is reported as “JAK1 = 39”. Also, the concentration for half-maximal inhibition (IC50) on JAK1 is 100 to 1000 nM; at JAK2, under 100 nM; at JAK3, 1000 to 10000 nM; on TYK2, 100 to 1000 nM.
For the compound `Cn1cc(Nc2ncc(Cl)c(NCC3CCOCC3)n2)cn1` [Example 46, 5-chloro-N^2-(1-methyl-1H-pyrazol-4-yl)-N^4-((tetrahydro-2H-pyran-4-yl)methyl)pyrimidine-2,4-diamine], on JAK1, the “Selectivity ratio over JAK2, JAK1” value is listed as “JAK1 = 6”. Also, the IC50 is 100 to 1000 nM on JAK1, 1000 to 10000 nM on JAK2, 100 to 1000 nM at JAK3 and 100 to 1000 nM at TYK2.
For the compound `Cn1cc(Nc2ncc(Cl)c(NC[C@H]3CCCCN3S(C)(=O)=O)n2)cn1` [Example 43, (R)-5-chloro-N^2-(1-methyl-1H-pyrazol-4-yl)-N^4-((1-(methylsulfonyl)piperidin-2-yl)methyl)pyrimidine-2,4-diamine], the IC50 is 100 to 1000 nM at JAK1, 100 to 1000 nM at JAK2, under 100 nM at JAK3 and under 100 nM on TYK2. Further, the “Selectivity ratio over JAK2, JAK3” value at JAK3 was “Jak3 = 18”.
`Cc1cnc(Nc2cnn(C)c2)nc1NC[C@H]1CCCN1CCS(C)(=O)=O` [Example 107, (R)-5-methyl-N^2-(1-methyl-1H-pyrazol-4-yl)-N^4-((1-(2-(methylsulfonyl)ethyl)pyrrolidin-2-yl)methyl)pyrimidine-2,4-diamine]: the IC50 was under 100 nM on JAK1, 100 to 1000 nM on JAK2, under 100 nM on JAK3 and under 100 nM on TYK2. Moreover, the “Selectivity ratio over JAK2, Tyk2” value on TYK2 is listed as “Tyk2 = 67”.
`Cn1cc(Nc2ncc(Cl)c(NC[C@H]3CCCN3C(=O)CCC#N)n2)cn1` [Example 86, (R)-4-(2-(((5-chloro-2-((1-methyl-1H-pyrazol-4-yl)amino)pyrimidin-4-yl)amino)methyl)pyrrolidin-1-yl)-4-oxobutanenitrile]: the 50% inhibitory concentration (IC50) on JAK1 is under 100 nM; at JAK2 it was 100 to 1000 nM; at JAK3, under 100 nM; on TYK2, under 100 nM. At TYK2, the “Selectivity ratio over JAK2, Tyk2” value is reported as “Tyk2 = 33”.
Regarding `CC(=O)N1CC(CNc2nc(Nc3cnn(CCO)c3)ncc2Cl)C1` [Example 17, 1-(3-(((5-chloro-2-((1-(2-hydroxyethyl)-1H-pyrazol-4-yl)amino)pyrimidin-4-yl)amino)methyl)azetidin-1-yl)ethanone], the IC50 on JAK1 is 1000 to 10000 nM; at JAK2, over 10000 nM; on JAK3 it was 1000 to 10000 nM; on TYK2 it was 1000 to 10000 nM.
Regarding `Cc1cnc(Nc2cnn(C)c2)nc1NC[C@H]1CCCN1C(=O)CC#N` [Example 109, (R)-3-(2-(((5-methyl-2-((1-methyl-1H-pyrazol-4-yl)amino)pyrimidin-4-yl)amino)methyl)pyrrolidin-1-yl)-3-oxopropanenitrile], the IC50 at JAK1 was under 100 nM; on JAK2, 100 to 1000 nM; on JAK3, 100 to 1000 nM; on TYK2, under 100 nM. Besides, the “Selectivity ratio over JAK2, Tyk2” value at TYK2 is given as “Tyk2 = 69”.
Consider `Cc1cnc(Nc2cnn(C)c2)nc1NC[C@@H]1CCCN1CCS(C)(=O)=O` [Example 105, (S)-5-methyl-N^2-(1-methyl-1H-pyrazol-4-yl)-N^4-((1-(2-(methylsulfonyl)ethyl)pyrrolidin-2-yl)methyl)pyrimidine-2,4-diamine], for which, at JAK1, the “Selectivity ratio over JAK2, JAK1” value is reported as “JAK1 = 33”. Further, the IC50 on JAK1 is under 100 nM; on JAK2, 1000 to 10000 nM; at JAK3, 100 to 1000 nM; at TYK2 it was under 100 nM.
Regarding `Cn1cc(Nc2ncc(Cl)c(NC[C@H]3CCCN3CCO)n2)cn1` [Example 48, (R)-2-(2-((5-chloro-2-(1-methyl-1H-pyrazol-4-ylamino)pyrimidin-4-ylamino)methyl)pyrrolidin-1-yl)ethanol], the IC50 fell in the range of 100 to 1000 nM on JAK1, 1000 to 10000 nM at JAK2, 100 to 1000 nM on JAK3 and 100 to 1000 nM on TYK2. The “Selectivity ratio over JAK2, JAK3” value at JAK3 is “JAK3 = 52”.
As for `Cc1cnc(Nc2cnn(C)c2)nc1NC[C@@H]1C[C@H](F)CN1C(=O)CCC#N` [Example 104, 4-((2S,4S)-4-fluoro-2-(((5-methyl-2-((1-methyl-1H-pyrazol-4-yl)amino)pyrimidin-4-yl)amino)methyl)pyrrolidin-1-yl)-4-oxobutanenitrile], at JAK1, the “Selectivity ratio over JAK2, JAK1” value is given as “JAK1 = 96”. The IC50 is under 100 nM at JAK1, 1000 to 10000 nM on JAK2, 100 to 1000 nM at JAK3 and under 100 nM at TYK2.
In the case of `C=CC(=O)N1CCC[C@H]1CNc1nc(Nc2cnn(CCO)c2)ncc1Cl` [Example 11, (S)-1-(2-(((5-chloro-2-((1-(2-hydroxyethyl)-1H-pyrazol-4-yl)amino)pyrimidin-4-yl)amino)methyl)pyrrolidin-1-yl)prop-2-en-1-one], the IC50 at JAK1 is 100 to 1000 nM; on JAK2, over 10000 nM; at JAK3, 1000 to 10000 nM; on TYK2, 100 to 1000 nM.
`CN1CCCC1CNc1nc(Nc2cnn(C)c2)ncc1Cl` (stereo not drawn) [Example 62, 5-chloro-N^2-(1-methyl-1H-pyrazol-4-yl)-N^4-((1-methylpyrrolidin-2-yl)methyl)pyrimidine-2,4-diamine]: the “Selectivity ratio over JAK2, JAK1” value at JAK1 is on record as “JAK1 = 23”. Further, the IC50 on JAK1 was 100 to 1000 nM; on JAK2, over 10000 nM; at JAK3, 100 to 1000 nM; on TYK2, over 10000 nM.
In the case of `Cn1cc(Nc2ncc(Cl)c(NC[C@H]3CCCN3CCS(C)(=O)=O)n2)cn1` [Example 50, (R)-5-chloro-N^2-(1-methyl-1H-pyrazol-4-yl)-N^4-((1-(2-(methylsulfonyl)ethyl)pyrrolidin-2-yl)methyl)pyrimidine-2,4-diamine], the concentration for half-maximal inhibition (IC50) on JAK1 is under 100 nM; on JAK2 it was 100 to 1000 nM; at JAK3 it was under 100 nM; at TYK2, under 100 nM. For the same compound, the “Selectivity ratio over JAK2, Tyk2” value on TYK2 is on record as “Tyk2 = 25”.

Values taken from US20150005281A1, “PYRIMIDINE-2,4-DIAMINE DERIVATIVES AS KINASE INHIBITORS” (Cellzome Limited, priority 2011, published 2015).
